Patent US12064444B2, “Application of tannic acid in preparation of medicament against respiratory viruses” (priority 2020, dated 2024)

Test system: SARS-CoV-2 virus

Structure (SMILES) | SI (Selection Index = TC50/IC50)
CCC(CC)COC(=O)[C@H](C)N[P@](=O)(OC[C@H]1O[C@@](C#N)(c2ccc3c(N)ncnn23)[C@H](O)[C@@H]1O)Oc1ccccc1 [Remdesivir] | 162.21
O=C(OC[C@H]1O[C@@H](OC(=O)c2cc(O)c(O)c(OC(=O)c3cc(O)c(O)c(O)c3)c2)[C@H](OC(=O)c2cc(O)c(O)c(OC(=O)c3cc(O)c(O)c(O)c3)c2)[C@@H](OC(=O)c2cc(O)c(O)c(OC(=O)c3cc(O)c(O)c(O)c3)c2)[C@@H]1OC(=O)c1cc(O)c(O)c(OC(=O)c2cc(O)c(O)c(O)c2)c1)c1cc(O)c(O)c(OC(=O)c2cc(O)c(O)c(O)c2)c1 [Tannic acid, tannic acid] | 7343.75
